Series [1] in a line: logP by HPLC on reversed-phase column (C18), EEC Directive 79/831 Annex V.A8. The following applies: HPLC, reversed-phase C18, acetonitrile (0.1% formic acid)/water (0.09% formic acid) gradient. The class given is physicochemical.
In series [2] the test system is Boophilus microplus. As to the kind of experiment: Boophilus microplus - injection test (BBOMI Inj). The class given is in vivo. The settings on record: 4 μg/animal, injected into engorged adult female cattle ticks, after 7 days. How it is done:
(§1) Solvent: dimethyl sulphoxide
(§2) To produce an appropriate active ingredient formulation, 10 mg of active ingredient are mixed with 0.5 ml of solvent and the concentrate is diluted with solvent to the desired concentration.
(§3) 1 μl of the active ingredient solution is injected into the abdomen of 5 engorged adult female cattle ticks (Boophilus microplus). The animals are transferred into dishes and kept in a climate-controlled room.
(§4) Efficacy is assessed after 7 days by laying of fertile eggs. Eggs which are not visibly fertile are stored in a climate-controlled cabinet until the larvae hatch after about 42 days. An efficacy of 100% means that none of the ticks has laid any fertile eggs; 0% means that all the eggs are fertile.

In series [3] the test system is Lucilia cuprina. As to the kind of experiment: Lucilia cuprina test (LUCICU). The class given is in vivo. The settings on record: 20 ppm, L1 larvae, after 2 days. As to the method: as §1
(§5) To produce an appropriate active ingredient formulation, 10 mg of active ingredient are mixed with 0.5 ml of dimethyl sulphoxide, and the concentrate is diluted with water to the desired concentration.
(§6) About 20 L1 larvae of the Australian sheep blowfly (Lucilia cuprina) are transferred into a test vessel containing minced horsemeat and the active ingredient preparation of the desired concentration.
(§7) After 2 days, the kill in % is determined 100% means that all the larvae have been killed; 0% means that none of the larvae have been killed.

Series [4] deals with Ctenocephalides felis. The series can be described thus: Ctenocephalides felis - in vitro contact tests with adult cat fleas. The class given is in vivo. The settings on record: 5 μg/cm^2, adult cat fleas, after 48 h. How it is done:
For the coating of the test tubes, 9 mg of active ingredient are first dissolved in 1 ml of acetone p.a. and then diluted to the desired concentration with acetone p.a. 250 μl of the solution are distributed homogeneously on the inner walls and base of a 25 ml test tube by turning and rocking on an orbital shaker (rocking rotation at 30 rpm for 2 h). With 900 ppm active ingredient solution and internal surface area 44.7 cm^2, given homogeneous distribution, an area-based dose of 5 μg/cm^2 is achieved.
After the solvent has evaporated off, the tubes are populated with 5-10 adult cat fleas (Ctenocephalides felis), sealed with a perforated plastic lid and incubated in a horizontal position at room temperature and ambient humidity. After 48 h, efficacy is determined. To this end, the test tubes are stood upright and the fleas are knocked to the base of the tube. Fleas which remain motionless at the base or move in an uncoordinated manner are considered to be dead or moribund.
100% efficacy means that all the fleas were dead or moribund. 0% efficacy means that no fleas were harmed.

Series [5] has as its system Rhipicephalus sanguineus. The series can be described thus: Rhipicephalus sanguineus - in vitro contact tests with adult brown dog ticks. The format is in vivo. The following applies: 5 μg/cm^2, adult dog ticks, after 48 h. As to the method: For the coating of the test tubes, 9 mg of active ingredient are first dissolved in 1 ml of acetone p.a. and then diluted to the desired concentration with acetone p.a. 250 μl of the solution are distributed homogeneously on the inner walls and base of a 25 ml test tube by turning and rocking on an orbital shaker (rocking rotation at 30 rpm for 2 h). With 900 ppm active ingredient solution and internal surface 44.7 cm^2, given homogeneous distribution, an area-based dose of 5 μg/cm^2 is achieved.
After the solvent has evaporated off, the tubes are populated with 5-10 adult dog ticks (Rhipicephalus sanguineus), sealed with a perforated plastic lid and incubated in a horizontal position in the dark at room temperature and ambient humidity. After 48 h, efficacy is determined To this end, the ticks are knocked to the floor of the tube and incubated on a hotplate at 45-50° C. for not more than 5 min Ticks which remain motionless on the floor or move in such an uncoordinated manner that they are unable to deliberately avoid the heat by climbing upwards are considered to be dead or moribund.
An efficacy of 100% means that all the ticks were dead or moribund. 0% efficacy means that none of the ticks had been harmed.

The test system of series [6] is Amblyomma hebraeum. As to the kind of experiment: Amblyomma hebaraeum - test (tick nymphs, immersion). The format is in vivo. The settings on record: 100 ppm, tick nymphs immersed one minute, after 42 days. As to the method:
as §1, §5
Tick nymphs (Amblyomma hebraeum) are placed into perforated plastic beakers and immersed in the desired concentration for one minute. The ticks are transferred on filter paper into a Petri dish and stored in a climate-controlled cabinet.
After 42 days, the kill in % is determined 100% means that all of the ticks have been killed; 0% means that none of the ticks have been killed.

The subject of series [7] is Boophilus microplus Parkhurst strain, SP-resistant. The series can be described thus: Boophilus microplus - dip test. The format is in vivo. The following applies: 100 ppm, adult engorged female cattle ticks, after 7 days. How it is done:
Test animals: cattle ticks (Boophilus microplus) Parkhurst strain, SP-resistant
as §1
10 mg of active ingredient are dissolved in 0.5 ml of dimethyl sulphoxide. For the purpose of producing a suitable formulation, the active ingredient solution is diluted with water to the concentration desired in each case.
This active ingredient formulation is pipetted into tubes. 8-10 adult engorged female cattle ticks (Boophilus microplus) are transferred into a further tube with holes. The tube is immersed into the active ingredient formulation, and all the ticks are completely wetted. After the liquid has run out, the ticks are transferred on filter discs into plastic dishes and stored in a climate-controlled room.
as §4

Series [8] concerns Boophilus microplus. As to the kind of experiment: Boophilus microplus - injection test. The format is in vivo. The following applies: 20 μg/animal, injected into engorged adult female cattle ticks, after 7 days. How it is done: as §1, §2, §3, §4
The test system of series [9] is Lucilia cuprina. As to the kind of experiment: Lucilia cuprina - test. The settings on record: 100 ppm, L1 larvae, after 2 days. The class given is in vivo. As to the method:
as §1, §5, §6, §7

Series [10] has as its system Phaedon cochleariae. The series can be described thus: Phaedon cochleariae - spray test. The settings on record: 100 g/ha, Chinese cabbage leaf discs, after 7 days. The class given is in vivo. As to the method: Solvent: 78.0 parts by weight of acetone
• 1.5 parts by weight of dimethylformamide Emulsifier: alkylaryl polyglycol ether
To produce an appropriate active ingredient formulation, 1 part by weight of active ingredient is dissolved using the specified parts by weight of solvent and made up with water containing an emulsifier concentration of 1000 ppm until the desired concentration is attained. To produce further test concentrations, the preparation is diluted with emulsifier-containing water.
Discs of Chinese cabbage leaves (Brassica pekinensis) are sprayed with an active ingredient formulation of the desired concentration and, after drying, populated with larvae of the mustard beetle (Phaedon cochleariae).
After 7 days, efficacy in % is determined 100% means that all the beetle larvae have been killed; 0% means that no beetle larvae have been killed.

Usually chromatographic logP stands for lipophilicity estimated from chromatographic retention. Low readings indicate lower lipophilicity, high ones higher lipophilicity. In the case of `Cc1cc(C(F)(C(F)(F)F)C(F)(F)F)cc(C)c1-c1cn(-c2ccc(Cl)c(C(=O)NC3CC3)c2)nn1` [I-T48-1, 2-chloro-N-cyclopropyl-5-[4-[2,6-dimethyl-4-[1,2,2,2-tetrafluoro-1-(trifluoromethyl)ethyl]phenyl]triazol-1-yl]benzamide], in series [1], the chromatographic logP was found to be 4.19. Besides, the “efficacy (no fertile eggs laid)” value in [2], in [7] and in series [8] was 100% in each case. For the same compound, the “efficacy (kill in %)” value in series [3], in series [6] and in series [9] was 100% throughout. Further, the “efficacy (dead or moribund)” value in series [4] and in [5] was 100% in each case. Moreover, the “efficacy (beetle larvae killed)” value in series [10] was determined as 100%.
